Results taken from publication PMC12040169 (PLOS Biology, 2025).

Assay: in vitro
Details: human, hela cells, % viability

Structure (SMILES)	viability at 28.5 h, 10 µM [%]
CSCCCNC(=O)N(C)C1CCN(C)C1 (stereo not shown) [CBK155995]	104
CN(C)CCNc1ncnc2sc3c(c12)CCC3 [CBK265347]	69.5
O=S(=O)(c1ccc(C(F)(F)F)cc1Cl)N1CCN(Cc2ccc3cccc(O)c3n2)CC1 [CBK063073]	94.1
O=C(C1=C(O)C(=O)N(CCCN2CCOCC2)C1c1cccnc1)c1ccco1 (stereo not shown) [CBK264528]	102
Cc1ccc(C2(c3ccc(C)cc3)CC2C(=O)Nc2ccccc2[N+](=O)[O-])cc1 (stereo not shown) [CBK263591]	93.3
CCc1nn(CC(=O)NC2CCC2)c(=O)c2cc3sc(C)cc3n12 [CBK284142]	92.4
COCCCOc1nccnc1NC(C)C [CBK115876]	90
CN(CCC#N)S(=O)(=O)c1ccc(OC(F)(F)F)cc1 [CBK044415]	88.1
Cc1ccc(C(=O)Nc2nnn(C)n2)c(Cl)c1 [CBK287856]	97.4
O=[N+]([O-])c1ccc(-c2nc3ccc(Br)cn3[n+]2[O-])cc1 [CBK262335]	96.5
N#Cc1c2c(c(Nc3ccc(C4CCCCC4)cc3)n3c1nc1ccccc13)CCC2 [CBK263122]	95.1
CCNC(=O)Nc1ncc(-c2ccc3c(c2)OCCCO3)c2cccnc12 [CBK070634]	104
CCCCn1c(S)nc2c(-c3ccccc3)c[nH]c2c1=O [CBK288505]	96.2
O=C(O)Cc1ccc(OCC(=O)NCc2ccc(Cl)cc2Cl)cc1 [CBK296628]	109
CC1(C(=O)Nc2cnn(Cc3ccc(F)cc3)c2)CCCO1 (stereo not shown) [CBK282585]	104
Cc1cccnc1NS(=O)(=O)c1cccs1 [CBK299775]	80.6
Cc1cc(C)cc(Nc2c(-c3ccc(C(=O)O)cc3)nc3cnccn23)c1 [CBK287166]	73.3
CC(=O)c1ccc(NC(=O)Cn2cnc3c(sc4ncccc43)c2=O)cc1 [CBK287773]	95.4
O=C1NCCc2c1[nH]c1ccccc21 [CBK101624]	65.5
Cc1cc2c(cc1C)C(O)CC1(CCN(CC(=O)NC3CCCCC3)CC1)O2 (stereo not shown) [CBK286399]	94
O=C(Nc1ccc2c(c1)OCCO2)c1cnccn1 [CBK220830]	92.8
Cc1cc(C)cc(NC(=O)Cn2cnc3c(sc4ccccc43)c2=O)c1 [CBK287807]	82.5
CCCc1nc(C(=O)NC2CC(=O)N(CCc3ccc(F)cc3)C2)cs1 (stereo not shown) [CBK306548]	105

Structure (SMILES)	viability at 28.5 h, 10 µM [%]
COc1cncc(-c2cncc(Nc3ccccc3)n2)c1 [CBK065435]	113
CN(C)c1ccc(NC(=O)C(Cc2ccccc2)N2C(=O)c3ccccc3C2=O)cc1 (stereo not shown) [CBK262413]	99.6
Cc1nnc2sc(-c3ccc(NC(=O)CSc4ccc(Cl)cc4)cc3)nn12 [CBK266800]	108
CCOc1ccc(CN2CCN(CCCc3ccccc3)CC2)cc1 [CBK264153G]	92.7
C/C=C/c1ccc(OCCCSc2nc(C)cc(O)n2)c(OC)c1 [CBK267413]	93.5
CCn1nc(C)c(C2NC(=O)c3ccccc3N2)c1C (stereo not shown) [CBK288214]	88.6
O=C(CCn1c(C(F)(F)F)cc2cccnc21)NC1CCCC1 [CBK284864]	103
Cc1cccnc1CN(C)C(=O)c1cccc(NC(=O)C2CCCC2)c1 [CBK306913]	82.9
CC(=O)Nc1ccc(CCC2(NC(=O)C3CC3)CCCCC2)cn1 [CBK282290]	87.4
CC(=O)N1CCc2c([nH]c3ccccc23)C12CCN(CCc1ccccc1)CC2 [CBK039757]	78.8
O=[N+]([O-])c1ccc(CCNCC(O)COc2cccc3c2CCCC3)cc1 (stereo not shown) [CBK003083]	88.6
O=c1[nH]c(=O)c2cc(S(=O)(=O)Nc3ccccc3Cc3ccccc3)ccc2[nH]1 [CBK286377]	94.3
CC(C)Cn1c(=O)c(C(=O)Nc2ccccc2S(N)(=O)=O)c(O)c2ccccc21 [CBK262290]	93.1
O=C(C1CCCN(C2CCN(Cc3ccccc3)CC2)C1)N1CCN(c2ccccc2)CC1 (stereo not shown) [CBK265440G]	113
O=C1CN(S(=O)(=O)c2ccc(NS(=O)(=O)c3ccc4ccccc4c3)cc2)CC(=O)N1 [CBK262513]	95.4
COc1ccc(CCNC(=O)N2CCCC(C(=O)O)C2)cc1OC (stereo not shown) [CBK161354]	100
CC(=O)Nc1ccc(Nc2cc(-c3ccco3)ncn2)cc1 [CBK090719]	100
COc1ccccc1C1CCC(NCCCC(=O)c2ccc(F)cc2)CC1 (stereo not shown) [CBK015965C]	105
C[C@@H]1CN(C(=O)c2ccc3[nH]nnc3c2)C[C@H](C)O1 [CBK200369]	104
COc1cccc(N2CCN(CC(=O)N3CCC(C(N)=O)CC3)CC2)c1 [CBK202881]	106
Cc1nc(C)c(CCC(=O)Nc2ccc(N3CCOCC3)cc2)c(=O)[nH]1 [CBK306059]	88.4
O=C(O)CSc1cccc2cccnc12 [CBK126918]	95
COc1ncc(-c2nccnc2N[C@H](C)c2ccccc2)c(OC)n1 [CBK036588]	83.7

Structure (SMILES)	viability at 28.5 h, 10 µM [%]
Cn1c(=O)n(-c2cccc(Cl)c2)c(=O)n1C [CBK116498]	82.2
CCSc1nnc2c(n1)OC(C1CC=C(C)CC1)Nc1ccccc1-2 (stereo not shown) [CBK262367]	95.5
Cn1cncc1C(=O)N1CCN(Cc2ccccc2)CC1 [CBK200178]	98.2
O=C(Nc1nc(-c2ccco2)c(-c2ccncc2)s1)C1CC1 [CBK284494]	87.4
O=C(NCCOc1ccccc1)N1CCCC(CO)C1 (stereo not shown) [CBK156058]	99.6
Cc1c(C(=O)N2CCC(N3CCSCC3)CC2)[nH]c2c(F)cccc12 [CBK307065]	96.8
Cc1ccccc1C(=O)NC(=S)Nc1sc2c(c1C#N)CCCC2 [CBK264403]	98.3
CCc1nc(CN2CCN(C(=O)Nc3ccccc3C)CC2)cs1 [CBK305817]	87.5
O=C(N/N=C/c1ccc([N+](=O)[O-])cc1)C(=O)Nc1cccc(Cl)c1 [CBK261821]	95.8
COc1ccc(/C=C(\NC(C)=O)C(=O)N2CCNCC2)cc1 [CBK077408]	90.5
Cc1c(C(N)=O)sc2ncn(CCc3ccccc3)c(=O)c12 [CBK268492]	103
Cc1ccc(CNc2c(-c3ccco3)nc3cnccn23)cc1 [CBK283693]	89.3
COc1ccccc1-c1cnc(Nc2ccc(N3CCOCC3)cc2)c2nccn12 [CBK091230]	99.9
OCC(O)/C=N/Nc1nc(N2CCCCC2)nc(N2CCCCC2)n1 (stereo not shown) [CBK019423]	107
Cn1cc(CC(=O)N2CCCc3ccccc32)c2ccccc21 [CBK200349]	64.8
CC(=O)C1=C(O)C(=O)N(CC(=O)O)C1c1ccc(Br)cc1 (stereo not shown) [CBK286712]	89.9
CC(=O)NC(c1ccccn1)C1CCCN(C(=O)C2CC2C)C1 (stereo not shown) [CBK285032]	84.2
COc1ccc(C(C)c2cc3c(cc2OC)OCO3)c(F)c1 (stereo not shown) [CBK200112]	53.3
CCOc1cccc(CNc2ccc(N3CCOCC3)c(C(=O)O)c2)c1 [CBK269973]	92.9
COc1ccc(S(=O)(=O)NCCc2ccc(S(N)(=O)=O)cc2)cc1[N+](=O)[O-] [CBK267598]	94.1
Oc1nc(CN2CCN(Cc3ccc4c(c3)OCO4)CC2)nc2ccccc12 [CBK074355]	110
Cc1ccccc1-n1c(SC(C)C)nc2sc3c(c2c1=O)CC(C)(C)OC3 [CBK091874]	91.2
Cc1nc2cc(OCc3ccc(-c4nccnc4-c4nnn[nH]4)cc3)ccc2s1 [CBK050820]	108

Structure (SMILES)	viability at 28.5 h, 10 µM [%]
CC(C)Nc1nc2cc(Cl)c(Cl)cc2nc1Sc1nc[nH]n1 [CBK115261]	93.3
CC(C)(C)c1cc(CN)c(C(=O)O)o1 [CBK266510C]	94.3
CN1CCN(NC(=O)COc2cccc(C(F)(F)F)c2)CC1 [CBK268124]	90.2
O=C(Nc1cc2ccccc2c(N2CCNCC2)n1)c1cnccn1 [CBK036346T]	95.4
O=CN1CCc2c([nH]c3ccccc23)C12CCCN(CCOc1ccccc1)C2 (stereo not shown) [CBK039412]	93.3
COc1cc(C(=O)NCc2ccc(-c3csnn3)cc2)cc(OC)c1OC [CBK149308]	87
O=C1CCCN1C(=O)CN1CCOCC1 [CBK261467]	117
CCCC/C=C/c1cncc(NC(C)CCCC(C)(C)O)n1 (stereo not shown) [CBK065505]	104
Cn1nccc1C(=O)N1CCCC(c2cc3ncccc3[nH]2)C1 (stereo not shown) [CBK283413]	104
CC1=CCC2(CC1)COC(C(C)(C)CN(C)C)OC2 (stereo not shown) [CBK011369]	91.7
c1cc(CCCOc2cncc(N3CCCC3)n2)ccn1 [CBK115760]	85.3
O=C(Cn1cccc(C(=O)NCc2ccccc2)c1=O)NC1(c2ccccc2)CCCC1 [CBK286058]	89.1
O=C(O)CCC(=O)N1CCC(Cn2cncn2)(C2CCCCC2)CC1 [CBK136809]	94.8
CCc1nc2ccccc2n1CC(=O)N(CCC#N)Cc1cccnc1 [CBK304892]	87.7
Cc1ccc(-c2ccccc2CC2(C(=O)O)CCN(Cc3ccccc3F)CC2)c(C)c1 [CBK286418]	96.7
CCCNS(=O)(=O)c1ccc(OCC(=O)N2CCN(C)CC2)c(C)c1 [CBK270169]	102
O=C(c1ccccc1F)N1CCCC(c2cc3ncccc3cn2)C1 (stereo not shown) [CBK284710]	83.3
Cc1nnc(SCC(=O)Nc2nsc(-c3ccc(Cl)cc3)n2)s1 [CBK266525]	91.5
OCc1ccccc1-c1cncc(NCc2ccc3c(c2)OCO3)n1 [CBK065318]	89.2
O=C(O)c1[nH]c2ccccc2c1C(c1c(F)cccc1Cl)c1c(C(=O)O)[nH]c2ccccc12 [CBK267797]	87.4
Cc1ccc(NC(=O)COc2ccc(/C=C\c3onc(C)c3[N+](=O)[O-])cc2)cc1 [CBK268928]	88.2

Same assay, conditions: human, hela cells, % viability, bulk resorufin, single well

Structure (SMILES)	viability at 28.5 h, 10 µM [%]
CCN(CC)CCNC(=O)CN1CCCC1=O [CBK261312]	84.6
